Source: patent US8314132B2, “5-aryl-4-(5-substituted 2,4-dihydroxyphenyl)-1,2,3-thiadiazoles as inhibitors of Hsp90 chaperone and the intermediates for production thereof” (Biotechnologijos Institutas, priority 2008, dated 2012)

Experiments:
[1] = tested on: HeLa (cervical carcinoma) cells; experiment: Growth inhibition (GI50), XTT cell viability assay, HeLa; format: cell-based; settings: Homo sapiens, 72 h, 3 days, read-out: GI50 constants, HeLa
Procedure: (§1) The growth inhibition constants of the compounds were determined in two cancer cell lines: U2OS (osteosarcoma) and HeLa (cervical carcinoma). Cells were maintained in DMEM (HeLa) and a 50-50% mixture of DMEM and F-12 media (U2OS) supplemented with 10% fetal bovine serum. Stock solutions (20 mM) of the tested compounds were prepared in 100% dimethyl-sulfoxide (DMSO). Cells, cultured in 24-well plates, were subjected to a range of concentrations of the compounds ([…]) at 0.25% DMSO. After 3 days, cell viability was assayed using XTT (sodium salt of 2,3-bis[2-Methoxy-4-nitro-5-sulfophenyl]-2H-tetrazolium-5-carboxyanilide inner salt) and PMS (phenazine methosulfate) reagents (Scudiero et al. 1988. Cancer Res. 48, 4827-4833). Stock solutions of XTT (1 mg/ml) and PMS (1.53 mg/ml) were prepared in Hank's buffered saline (HBS). Culture medium in each well was replaced by 100 μl of OptiMEM media (Life technologies) containing 35 μg/ml XTT and 0.27 μg/ml PMS. Cells were returned to the incubator for 15-20 min. Quantity of viable cells in each well was evaluated spectrophotometrically measuring the absorbance of XTT formazan at 470 nm. Each experiment was run in duplicate.

[2] = tested on: U2OS (osteosarcoma) cells; experiment: Growth inhibition (GI50), XTT cell viability assay, U2OS; format: cell-based; settings: Homo sapiens, 72 h, 3 days, read-out: growth inhibition constants (GI50), U2OS
Procedure: as §1

| GI50 [1] | GI50 [2] | SMILES |
| --- | --- | --- |
| 2.5 ± 0.1 µM | 8.4 ± 1.2 µM | COc1ccc(-c2snnc2-c2cc(Cl)c(O)cc2O)cc1 [compound 3a, 4-(5-chloro-2,4-dihydroxyphenyl)-5-(4-methoxyphenyl)-1,2,3-thiadiazole] |
| 4.2 ± 0.4 µM | 15.1 ± 3.4 µM | CCOc1ccc(-c2snnc2-c2cc(Cl)c(O)cc2O)cc1 [compound 3b, 4-(5-chloro-2,4-dihydroxyphenyl)-5-(4-ethoxyphenyl)-1,2,3-thiadiazole] |
| 3.3 ± 0.1 µM | 7.1 ± 0.1 µM | Cc1ccc(-c2snnc2-c2cc(Cl)c(O)cc2O)cc1 [compound 3c, 4-(5-chloro-2,4-dihydroxyphenyl)-5-(4-methylphenyl)-1,2,3-thiadiazole] |
| 3.6 ± 0.3 µM | 11.5 ± 0.1 µM | COc1ccc(-c2snnc2-c2cc(Cl)c(O)cc2O)cc1OC [compound 3d, 4-(5-chloro-2,4-dihydroxyphenyl)-5-(3,4-dimethoxyphenyl)-1,2,3-thiadiazole] |
| 0.7 ± 0.04 µM | 0.65 ± 0.08 µM | CCOc1ccc(-c2snnc2-c2cc(CC)c(O)cc2O)cc1 [compound 3e, 4-(5-ethyl-2,4-dihydroxyphenyl)-5-(4-ethoxyphenyl)-1,2,3-thiadiazole] |
